Reference: PubChem BioAssay (NCI)
“And” between values parts separate entries of the source, which are not always exact repeats. Equal entries are not always repeated.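 96-well plates; 48 h exposure; 5 concentrations. Endpoints by linear interpolation between flanking doses. Not reached: highest tested concentration assigned. GI50 = concentration required for 50% inhibition of growth. At the TGI there is no net growth.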

How the values were obtained:
Assay in all cases: DTP human tumour cell line panel, 48 h
[1] = test system: SNB-75 CNS
[2] = test system: RPMI-8226 leukemia
[3] = test system: OVCAR-5 ovarian
[4] = test system: OVCAR-4 ovarian
[5] = test system: MDA-MB-435
[6] = test system: SK-MEL-2 melanoma
[7] = test system: UO-31 renal
[8] = test system: NCI-H23 lung
[9] = test system: SW-620 colon
[10] = test system: MALME-3M melanoma

Compound	GI50 [1]	TGI [1]	GI50 [2]	TGI [2]	GI50 [3]	TGI [3]	GI50 [4]	TGI [4]	GI50 [5]	TGI [5]	GI50 [6]	TGI [6]	GI50 [7]	TGI [7]	GI50 [8]	TGI [8]	GI50 [9]	TGI [9]	GI50 [10]	TGI [10]
CCN(CC)C1CCC(Nc2c(C(C)=O)cnc3ccc(-c4ccc(O)c(Cl)c4)cc23)CC1 (stereo not drawn)	0.152 µM	5.33 µM	0.393 µM	2.1 µM	2.4 µM	> 96.3 µM	0.77 µM	13.6 µM	0.651 µM	10.5 µM	4.15 µM	28.2 µM	0.425 µM	> 36.8 µM	0.474 µM	3.1 µM	0.933 µM	4.38 µM	0.941 µM	16.9 µM
CC(=O)Nc1ccc(COC(O)CN2CCCCC2)cc1[N+](=O)[O-] (stereo not drawn)		> 100 µM		> 100 µM		> 100 µM		> 100 µM		> 100 µM		> 100 µM		> 100 µM		> 100 µM		> 100 µM		> 100 µM
O=C1c2cccc(NCCN=Cc3ccccc3O)c2C(=O)c2c(NCCN=Cc3ccccc3O)cccc21	0.163 µM	2.65 µM	0.878 µM	4.29 µM	1.41 µM	5.43 µM		2.39 µM	1.16 µM	2.87 µM	1.2 µM	3.67 µM	0.596 µM	3.06 µM	1.01 µM	3.2 µM	0.258 µM	1.38 µM	1.01 µM	2.86 µM
CCCCCCCCn1ccc2cc(NC(=O)Cn3cc(CN4CCCCC4)nn3)ccc21	1.51 µM	2.96 µM			1.78 µM	3.71 µM	3.66 µM	14.3 µM	1.68 µM	3.15 µM	1.9 µM	3.68 µM	1.34 µM	2.62 µM	2.35 µM	6.34 µM	1.84 µM	3.59 µM	1.58 µM	3 µM
O=c1ssc(Cl)c1Cl		> 10 µM		9.11 µM		> 10 µM		> 10 µM		> 10 µM		> 10 µM		> 6.86 µM		> 10 µM		> 8.11 µM		9.77 µM
CCOc1cccc(-c2nc(N)nc(Nc3ccccc3SSc3ccccc3Nc3nc(N)nc(-c4cccc(OCC)c4)n3)n2)c1	> 100 µM	> 100 µM	2.18 µM	6.89 µM	3.42 µM	44.1 µM	5.87 µM	> 100 µM	8.1 µM	> 100 µM	6.12 µM	> 100 µM	1.68 µM	3.16 µM	3.79 µM	> 100 µM	4.56 µM	> 100 µM	5.63 µM	> 100 µM
CC(C)(C)c1c2c(c(C(C)(C)C)c3c1OCN(Cc1ccccc1)C3)OCN(Cc1ccccc1)C2		> 100 µM		44.6 µM		39 µM		> 100 µM		> 100 µM		51.5 µM		35.4 µM		27.4 µM		> 100 µM		43.1 µM
Cn1c(NCC(O)CN2CCCC2)cc(=O)n(C)c1=O (stereo not drawn)	76.2 µM	> 100 µM	> 100 µM	> 100 µM	> 100 µM	> 100 µM	> 100 µM	> 100 µM	> 100 µM	> 100 µM	> 100 µM	> 100 µM	> 100 µM	> 100 µM	> 100 µM	> 100 µM	> 100 µM	> 100 µM	> 100 µM	> 100 µM
O=C1c2ccccc2-c2c1c1ccccc1c(=O)n2CCCNCCCCNCCCN1C(=O)c2ccccc2C2C(=O)c3ccccc3C21 (stereo not drawn)	0.726 µM	1.46 µM	0.00858 µM	0.237 µM	0.57 µM	1.19 µM	0.779 µM	10.3 µM	0.805 µM	2.83 µM	1.04 µM	3.82 µM	0.691 µM	1.85 µM	0.319 µM	0.999 µM	0.126 µM	1.21 µM	5.27 µM	35 µM
O=C(O)c1ccc(C(=O)O)c(C(=O)Nc2ccc3c(c2)C(=O)c2ccccc2-3)c1		> 100 µM		> 100 µM		> 100 µM		> 100 µM		> 100 µM		> 100 µM		> 100 µM		> 100 µM		> 100 µM		> 100 µM
COc1ccc(C2C(C)C(=O)C(C)C(c3ccc(OC)cc3)N2N=O)cc1 (stereo not drawn)	5.93 µM	20.4 µM and 80 µM and 57.8 µM	> 750 µM	> 1000 µM		> 977 µM	> 750 µM	> 1000 µM		343 µM		602 µM		> 1000 µM	> 750 µM	> 750 µM and 713 µM	> 750 µM	> 1000 µM		> 700 µM
CC1(C)[C@@H](OC(=O)CCC(=O)O)CC[C@]2(C)[C@H]3C(=O)C=C4[C@@H]5C[C@@](C)(C(=O)O)CC[C@]5(C)CC[C@@]4(C)[C@]3(C)CC[C@@H]12	55 µM	83.5 µM	50.9 µM	69.9 µM	83.2 µM	125 µM	64.6 µM	168 µM	58.2 µM	98.8 µM	52.1 µM	67.9 µM	60.1 µM	81.6 µM	60.1 µM	115 µM	59.2 µM	126 µM	90.8 µM	128 µM
COc1cc(/C=C/C(=O)N2CCN(C(=O)c3cc(OC)c(OC)c(OC)c3)CC2)ccc1OCCCOc1cc2c(cc1OC)C(=O)N1CCC[C@H]1C=N2	0.241 µM	0.642 µM	0.431 µM	> 100 µM			1.53 µM	27.5 µM	0.178 µM	0.343 µM	0.26 µM	0.703 µM	1.98 µM	6.56 µM	0.296 µM	0.974 µM	0.198 µM	0.446 µM	0.175 µM	0.319 µM
COc1cc2c(cc1OC)C1Cc3cc(OC)c(OC)cc3C(C2)N1C		> 100 µM	17.1 µM and > 100 µM	> 100 µM		> 100 µM		> 100 µM		> 75 µM		> 100 µM	19.7 µM and 40.5 µM	> 100 µM		> 100 µM		> 100 µM		> 100 µM
Cn1c(=O)c(Oc2ccc(F)cc2F)cc2cnc(NC3CCS(=O)(=O)CC3)nc21	> 14.2 µM	> 25 µM	> 25 µM	> 25 µM	> 25 µM	> 25 µM	> 25 µM	> 25 µM	> 25 µM	> 25 µM	> 25 µM	> 25 µM	> 25 µM	> 25 µM	> 25 µM	> 25 µM	> 25 µM	> 25 µM	> 25 µM	> 25 µM
COc1ccc(C2C=C(c3ccc4c(c3)OCO4)Oc3c2c(=O)oc2ccccc32)cc1OC (stereo not drawn)		34.2 µM		5.29 µM		> 100 µM		> 100 µM		0.529 µM				> 100 µM		> 46.2 µM		> 100 µM		> 100 µM
CN1C/C=C/CCOc2cccc(c2)-c2ccnc(n2)Nc2cccc(c2)C1	0.039 µM	0.184 µM	0.058 µM	0.879 µM	0.0323 µM	2.08 µM	0.108 µM	1.31 µM	0.0366 µM	0.153 µM	0.0374 µM	0.125 µM	0.0251 µM	0.0849 µM	0.0577 µM	0.289 µM	0.0396 µM	0.969 µM	0.0469 µM	0.179 µM
CC(=O)OC12COC1CC(O)C1(C)C(=O)C(O)C3=C(C)C(O)CC(O)(C(OC(=O)c4ccccc4)C21)C3(C)C (stereo not drawn)		> 29.9 µM		> 59.8 µM		> 42.2 µM		> 100 µM		1.48 µM	1.84 µM	6.51 µM		> 100 µM		> 100 µM	2.48 µM	> 100 µM		> 100 µM
CS(=O)(=O)CC(=O)c1ccccc1		> 100 µM		> 100 µM		> 100 µM		> 100 µM		> 100 µM		> 100 µM		> 100 µM		> 100 µM		> 100 µM		> 100 µM
COc1ccc(-n2ccnc2-c2cc(OC)c(OC)c(OC)c2)cc1	2.19 µM	6.31 µM	3.78 µM	30.7 µM	10.1 µM	> 100 µM	11.3 µM	85.7 µM	0.303 µM	1.32 µM	7.27 µM	> 100 µM	4.91 µM	71.2 µM	3.3 µM	65 µM	2.37 µM	> 100 µM	0.747 µM	> 100 µM
OCc1ccc(N2CCc3ccccc3C2)cc1Cl	15.9 µM	57.7 µM	0.617 µM	87.9 µM	< 0.0123 µM	0.069 µM	< 0.0149 µM	0.0633 µM	23.2 µM	> 75.8 µM			8.28 µM	55.8 µM	13.9 µM	44 µM	< 0.0218 µM	> 100 µM	20.3 µM	56.6 µM
CC(=O)N1N=C2/C(=C/c3ccc(Cl)cc3)CC(C)CC2C1c1ccc(Cl)cc1 (stereo not drawn)	18.4 µM	65.3 µM	9.14 µM	32.6 µM	43.4 µM	> 100 µM	27.9 µM	> 100 µM	30.9 µM	> 100 µM	17.4 µM	36.7 µM	15.1 µM	30.5 µM	25.2 µM	> 100 µM	19.3 µM	57.7 µM	23.6 µM	76.2 µM
CCCCCCCCC(=O)OCC(CS[As](C)C)OC(=O)CCCCCCCC (stereo not drawn)	5.44 µM	23.5 µM	0.33 µM	2.16 µM	3.22 µM	10 µM	9.89 µM	38.4 µM	0.196 µM	0.652 µM	13.2 µM	58.9 µM	3.46 µM	> 39.9 µM	0.593 µM	1.5 µM	0.349 µM	14.9 µM	0.0531 µM	0.708 µM
Cc1cc(C(C)(C)C)cc(CNC2CCCCC2)c1O		26 µM		45.5 µM		31.9 µM		51.5 µM		43.4 µM		34 µM		28.2 µM		29.2 µM		40.4 µM		27.8 µM
CCN1Cc2nc3sc(C)c(C)c3c(=O)n2C=C1C	10.2 µM	> 100 µM	2.64 µM	10.9 µM	42.3 µM	> 100 µM	11.8 µM	> 100 µM	6.48 µM	39.1 µM	21.1 µM	> 100 µM	5.29 µM	> 100 µM	7.26 µM	> 100 µM	2.75 µM	12.6 µM	16.4 µM	73.5 µM
O=C1OCC2=C1C(c1ccc(Cl)c(Cl)c1)c1cc3c(cc1N2CCO)CCC3 (stereo not drawn)	0.134 µM	11.7 µM	0.237 µM	15.1 µM	0.336 µM	15.3 µM	0.326 µM	21.4 µM	0.0611 µM	0.183 µM	0.192 µM	6.89 µM	0.237 µM	21.2 µM	0.239 µM	12.2 µM	0.166 µM	10.7 µM	0.193 µM	16.4 µM
O=C(c1ccco1)c1c(C(F)(F)F)n([O-])c2ccc(Cl)cc2[n+]1=O	1.9 µM	5.18 µM			1.47 µM	2.86 µM	1.55 µM	5.73 µM	1.9 µM	7.66 µM	1.76 µM	9.78 µM	1.57 µM	2.98 µM	0.82 µM	2.55 µM	0.22 µM	1.18 µM	5.86 µM	21.3 µM
CC1OC(OC2C(OC3CCC4(C)C(CCC5(C)C4CC=C4C6CC(C)(C)CCC6(C(=O)O)CCC45C)C3(C)CO)OCC(O)C2O)C(O)C(O)C1O (stereo not drawn)		30.7 µM				38.4 µM		30.5 µM		43 µM		33.3 µM		13.1 µM		33.1 µM		55.4 µM		37.5 µM
